Source: patent publication US20260256747A1, “ARYL-TRIAZOLYL AND RELATED GPR84 ANTAGONISTS AND USES THEREOF” (Liminal BioSciences Limited, priority 2022, published 2026)

Molecular target: T1, human GPR84 receptor (Homo sapiens, UniProt Q9NQS5)
T1 construct: host or cells: HEK293 cells, transient transfection
Assay: Gαi biosensor BRET assay in HEK293 cells transfected with GPR84, stimulated with the GPR84 agonist ZQ-16
Format: cell-based
Conditions: 200 nmol/L ZQ-16; for inhibition at 2 µM / inhibition at 10 µM: HEK293, single concentration; for inhibition at 2 µM: concentration class A = 2 μM; for inhibition at 10 µM: concentration class F = 10 μM
Excerpt: Background—The following assays can be used for determination of GPR84 activation in living HEK293 cells. The Gαi BRET biosensor (Gagnon et al., 2018; Gales et al., 2006. Nat Struct Mol Biol. 13, 778-86; Saulieres et al., 2012. Nat Chem Biol. 8, 622-30) allows to directly monitor GPR84-mediated activation of Gαi. The Gαi biosensor consists of a Rluc8-tagged Gαi2 subunit, a GFP10-tagged Gγ2 subunit, and an untagged GB1. Agonist stimulation and GPR84 activation triggers a physical separation between the RLuc8-Gαi donor and the GFP10-Gγ2 acceptor, resulting in a decrease in BRET signal whose amplitude is correlated to ligand efficacy (Gales et al., 2006). Moreover, signaling functions of GPCRs are tightly regulated by endocytosis, the targeting of receptors to endosomes and their sorting to lysosomes or recycling to the plasma membrane. The early endosomes (EEs) trafficking assay (Namkung et al., 2016. Nat Commun. 7, 12178) uses Rluc8-tagged GPR84 and Renilla GFP (rGFP) attached to the FYVE domain from human endofin/zinc finger FYVE domain-containing protein 16, which binds phosphatidylinositol 3-phosphate in EEs. Agonist stimulation of GPR84-Rluc8 leads to trafficking of the receptor to EEs, and ensuing increase of the donor concentration relative to the rGFP-FYVE acceptor anchored in the same cellular compartment, and thus results in an increase in BRET signal.
Plasmids—The cDNA clones for human GPR84 receptor, human Gαi2, Gβ1, and Gγ2 were obtained from the cDNA Resource Center (www.cdna.org). GFP10 (F64L, S147P, S202F and H231L variant of Aequorea victoria Green Fluorescent Protein) gBlocks gene fragments (Integrated DNA Technologies, IA) and linker were inserted in frame at the N-terminus of human Gγ2. Rluc8 (A^55T, Cl24A, S130A, K136R, A^143M, M185V, M253L, and S287L variant of the Renilla reniformis luciferase) gBlocks gene fragment was inserted with linkers in frame in between residues 91 and 92 of Gαi2 or at the C-terminus of GPR84. The FYVE domain from human endofin (residues Q739 to K806) attached in frame at the C terminus of a humanized Renilla GFP (rGFP), were synthesized as gBlocks gene fragments.
Bioluminescence Resonance Energy Transfer (BRET) Measurement-HEK293 cells were transfected with GPR84-Rluc8 and rGFP-FYVE for the EEs trafficking biosensor or with GPR84, Gαi2-Rluc8, GFP10-Gγ2, and Gβ1 for the Gαi biosensor. The following day, transiently transfected cells were seeded in 96-well white clear bottom microplates coated with poly-D-lysine and left in culture for 24 hours. Cells were washed once with Tyrode's buffer (140 mmol/L NaCl, 1 mmol/L CaCl2, 2.7 mmol/L KCl, 0.49 mmol/L MgCl2, 0.37 mmol/L NaH2PO4, 5.6 mmol/L glucose, 12 mmol/L NaHCO3, and 25 mmol/L HEPES, pH 7.5) before performing assays in Tyrode's buffer. Test compounds were incubated with cells for 5 (Gai) or 15 (EEs) minutes at 37° C. before addition of 200 nmol/L of the GPR84 agonist ZQ-16 (2-(Hexylthio)-6-hydroxy-4 (3H)-pyrimidinone) for 5 minutes at room temperature (Gai) or 30 minutes at 37° C. (EEs). The Rluc8 substrate coelenterazine 400A (Prolume, Lakeside, AZ) was added at a final concentration of 5 μmol/L and BRET readings were collected using an Infinite M1000 microplate reader (Tecan, Morrisville, NC). BRET2 readings between Rluc8 and GFP10 or rGFP were collected by sequential integration of the signals detected in the 370 to 450 nm (Rluc8) and 510 to 540 nm (GFP10, rGFP) windows. The BRET signal was calculated as the ratio of light emitted by acceptor (GFP10, rGFP) over the light emitted by donor (Rluc8). The values were corrected to net BRET by subtracting the background BRET signal obtained in cells transfected with Rluc8 constructs alone. Ligand-promoted net BRET values were calculated by subtracting vehicle-induced net BRET from ligand-induced net BRET.

T1 sequence (Q9NQS5 whole entry): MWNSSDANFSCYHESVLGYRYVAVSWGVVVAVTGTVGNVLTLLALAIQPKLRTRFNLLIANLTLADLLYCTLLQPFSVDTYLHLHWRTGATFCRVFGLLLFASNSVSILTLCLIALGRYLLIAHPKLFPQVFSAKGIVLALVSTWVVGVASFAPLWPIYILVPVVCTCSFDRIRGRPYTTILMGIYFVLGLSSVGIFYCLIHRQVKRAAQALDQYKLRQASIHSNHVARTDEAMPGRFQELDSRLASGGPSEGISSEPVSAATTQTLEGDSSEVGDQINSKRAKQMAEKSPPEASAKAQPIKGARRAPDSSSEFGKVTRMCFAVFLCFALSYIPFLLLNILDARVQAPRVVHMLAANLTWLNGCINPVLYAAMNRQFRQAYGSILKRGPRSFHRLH

Row | SMILES | IC50 [nM] | inhibition at 2 µM [%] | inhibition at 10 µM [%]
1 | C(#CC1CC1)c1cnc(-c2cnn(CC3OCC4(CC4)CO3)c2)c(OC2CC2)c1 [Compound I-218] | 300 to 1000 | > 75 | –
2 | Cc1cc(C#CC2CC2)ccc1-c1nnc(-c2cn(CC3OCC4(CC4)CO3)nn2)o1 [Compound I-220] | 300 to 1000 | – | > 75
3 | CCCOc1cc(C#CC2CC2)cnc1-c1cn(CC(=O)N(C)C)nn1 [Compound I-221] | – | – | 50 to 75
4 | Cn1nnnc1-c1cnc(-c2cn(CC3OCC4(CC4)CO3)nn2)c(OC2CC2)c1 [Compound I-222] | – | – | ≤ 25
5 | Cn1nnc(-c2cnc(-c3cn(CC4OCC5(CC5)CO4)nn3)c(OC3CC3)c2)n1 [Compound I-223] | ≤ 300 | > 75 | –
6 | c1nc(-c2cn(CC3OCC4(CC4)CO3)nn2)c(OC2CC2)cc1-c1cnn[nH]1 [Compound I-224] | ≤ 300 | > 75 | –
7 | Cn1nncc1-c1cnc(-c2cn(CC3OCC4(CC4)CO3)nn2)c(OC2CC2)c1 [Compound I-225] | – | – | 50 to 75
8 | Cn1ncc(-c2cnc(-c3cn(CC4OCC5(CC5)CO4)nn3)c(OC3CC3)c2)n1 [Compound I-226] | ≤ 300 | > 75 | –
9 | Cn1cc(-c2cnc(-c3cn(CC4OCC5(CC5)CO4)nn3)c(OC3CC3)c2)nn1 [Compound I-227] | ≤ 300 | > 75 | –
10 | c1ncc(-c2cnc(-c3cn(CC4OCC5(CC5)CO4)nn3)c(OC3CC3)c2)[nH]1 [Compound I-228] | ≤ 300 | > 75 | –
11 | c1c[nH]c(-c2cnc(-c3cn(CC4OCC5(CC5)CO4)nn3)c(OC3CC3)c2)n1 [Compound I-229] | – | – | ≤ 25
12 | Cn1cncc1-c1cnc(-c2cn(CC3OCC4(CC4)CO3)nn2)c(OC2CC2)c1 [Compound I-230] | – | – | 50 to 75
13 | CN(C)C(=O)CN(C)c1cnc(-c2cn(CC3OCC4(CC4)CO3)nn2)c(OC2CC2)c1 [Compound I-231] | – | – | ≤ 25

Now from value to compound:

Row | IC50 [nM] | inhibition at 2 µM [%] | inhibition at 10 µM [%] | SMILES
14 | – | – | 50 to 75 | CN(C)C(=O)Cn1cc(-c2ncc(-c3nnn[nH]3)cc2OC2CC2)nn1 [Compound I-232]
15 | – | – | 25 to 50 | O=C(Cn1cc(-c2ncc(-c3nnn[nH]3)cc2OC2CC2)nn1)N1CCCC1 [Compound I-233]
16 | – | – | > 75 | C(#CC1CC1)Cn1cc(-c2ncc(-c3nnn[nH]3)cc2OC2CC2)nn1 [Compound I-234]
17 | ≤ 300 | > 75 | – | c1cc(-c2cnc(-c3cn(CC4OCC5(CC5)CO4)nn3)c(OC3CC3)c2)n[nH]1 [Compound I-235]
18 | 300 to 1000 | – | > 75 | c1n[nH]cc1-c1cnc(-c2cn(CC3OCC4(CC4)CO3)nn2)c(OC2CC2)c1 [Compound I-236]
19 | – | – | 50 to 75 | Cn1nccc1-c1cnc(-c2cn(CC3OCC4(CC4)CO3)nn2)c(OC2CC2)c1 [Compound I-237]
20 | ≤ 300 | > 75 | – | Cn1ccc(-c2cnc(-c3cn(CC4OCC5(CC5)CO4)nn3)c(OC3CC3)c2)n1 [Compound I-238]
21 | ≤ 300 | – | > 75 | Cn1cc(-c2cnc(-c3cn(CC4OCC5(CC5)CO4)nn3)c(OC3CC3)c2)cn1 [Compound I-239]
22 | – | – | ≤ 25 | CN(C)C(=O)Cn1cc(-c2ncc(C#N)cc2OC2CC2)nn1 [Compound I-240]
23 | – | – | 25 to 50 | N#Cc1cnc(-c2cn(CC(=O)N3CCCC3)nn2)c(OC2CC2)c1 [Compound I-241]
24 | – | – | 50 to 75 | O=C(Cn1cnc(-c2ncc(C#CC3CC3)cc2OC2CC2)c1)N1CCCC1 [Compound I-242]
25 | – | – | ≤ 25 | O=C(Cn1cncc1-c1ncc(C#CC2CC2)cc1OC1CC1)N1CCCC1 [Compound I-243]
26 | 1000 to 3000 | – | > 75 | O=C(Cn1cc(-c2ncc(C#CC3CC3)cc2OC2CC2)nn1)N1CC[C@H](O)C1 [Compound I-244]
27 | 1000 to 3000 | – | > 75 | O=C(Cn1cc(-c2ncc(C#CC3CC3)cc2OC2CC2)nn1)N1CC[C@@H](O)C1 [Compound I-245]
28 | – | – | 50 to 75 | O=C(Cn1cc(-c2ncc(C#CC3CC3)cc2OC2CC2)nn1)N1C[C@@H](O)[C@H](O)C1 [Compound I-246]
